Values after ≈ are worked out from the molar mass of the structure shown. Active and inactive are the calls of the source. The rule behind the calls is not given here.
What was measured:
[1] = test system: Staphylococcus aureus; assay: Antibacterial activity against methicillin-resistant Staphylococcus aureus at 4 hrs daily exposure for 2 days; type: functional, organism-based
[2] = test system: Staphylococcus aureus; assay: Antibacterial activity against methicillin-resistant Staphylococcus aureus after 24 hrs by silicone disk biofilm colonization method; type: functional, organism-based
[3] = test system: Staphylococcus aureus; assay: Antibacterial activity against methicillin-resistant Staphylococcus aureus at 4 hrs daily exposure for 3 days; type: functional, organism-based
[4] = test system: Staphylococcus aureus; assay: Antibacterial activity against methicillin-resistant Staphylococcus aureus at 4 hrs daily exposure for 5 day; type: functional, organism-based
[5] = test system: Staphylococcus aureus; assay: Antibacterial activity against methicillin-resistant Staphylococcus aureus 5004 at 4 hrs daily exposure for 1 day by broth microdilution method; type: functional
[6] = test system: Staphylococcus aureus; assay: Antibacterial activity against methicillin-resistant Staphylococcus aureus 4913 at 4 hrs daily exposure for 5 days by broth microdilution method; type: functional
[7] = test system: Staphylococcus aureus; assay: Antibacterial activity against methicillin-resistant Staphylococcus aureus 4913 at 4 hrs daily exposure for 1 day by broth microdilution method; type: functional
[8] = test system: Staphylococcus aureus; assay: Antibacterial activity against methicillin-resistant Staphylococcus aureus 4930 at 4 hrs daily exposure for 5 days by broth microdilution method; type: functional
[9] = test system: Staphylococcus aureus; assay: Antibacterial activity against methicillin-resistant Staphylococcus aureus 4875 at 4 hrs daily exposure for 1 day by broth microdilution method; type: functional
[10] = test system: Staphylococcus aureus; assay: Antibacterial activity against methicillin-resistant Staphylococcus aureus 4930 at 4 hrs daily exposure for 1 day by broth microdilution method; type: functional
[11] = test system: Staphylococcus aureus; assay: Antibacterial activity against methicillin-resistant Staphylococcus aureus 4803 at 4 hrs daily exposure for 5 days by broth microdilution method; type: functional
[12] = test system: Staphylococcus aureus; assay: Antibacterial activity against methicillin-resistant Staphylococcus aureus 859 at 4 hrs daily exposure for 1 day by broth microdilution method; type: functional
[13] = test system: Staphylococcus aureus; assay: Antibacterial activity against methicillin-resistant Staphylococcus aureus 4342 at 4 hrs daily exposure for 5 days by broth microdilution method; type: functional
[14] = test system: Staphylococcus aureus; assay: Antibacterial activity against methicillin-resistant Staphylococcus aureus 293 at 4 hrs daily exposure for 5 days by broth microdilution method; type: functional
[15] = test system: Staphylococcus aureus; assay: Antibacterial activity against methicillin-resistant Staphylococcus aureus 5004 at 4 hrs daily exposure for 5 days by broth microdilution method; type: functional
[16] = test system: Staphylococcus aureus; assay: Antibacterial activity against methicillin-resistant Staphylococcus aureus 789 at 4 hrs daily exposure for 1 day by broth microdilution method; type: functional
[17] = test system: Staphylococcus aureus; assay: Antibacterial activity against methicillin-resistant Staphylococcus aureus 5098 at 4 hrs daily exposure for 1 day by broth microdilution method; type: functional
[18] = test system: Staphylococcus aureus; assay: Antibacterial activity against methicillin-resistant Staphylococcus aureus 4875 at 4 hrs daily exposure for 5 days by broth microdilution method; type: functional
[19] = test system: Staphylococcus aureus; assay: Antibacterial activity against methicillin-resistant Staphylococcus aureus 4342 at 4 hrs daily exposure for 1 day by broth microdilution method; type: functional
[20] = test system: Staphylococcus aureus; assay: Antibacterial activity against methicillin-resistant Staphylococcus aureus 293 at 4 hrs daily exposure for 1 day by broth microdilution method; type: functional
[21] = test system: Staphylococcus aureus; assay: Antibacterial activity against methicillin-resistant Staphylococcus aureus 789 at 4 hrs daily exposure for 5 days by broth microdilution method; type: functional, organism-based
[22] = test system: Staphylococcus aureus; assay: Antibacterial activity against methicillin-resistant Staphylococcus aureus 4803 at 4 hrs daily exposure for 1 day by broth microdilution method; type: functional
[23] = test system: Staphylococcus aureus; assay: Antibacterial activity against methicillin-resistant Staphylococcus aureus 5098 at 4 hrs daily exposure for 5 days by broth microdilution method; type: functional
[24] = test system: Staphylococcus aureus; assay: Antibacterial activity against methicillin-resistant Staphylococcus aureus 859 at 4 hrs daily exposure for 5 days by broth microdilution method; type: functional

CCCCCCCCCC(=O)N[C@@H](Cc1c[nH]c2ccccc12)C(=O)N[C@H](CC(N)=O)C(=O)N[C@@H](CC(=O)O)C(=O)N[C@@H]1C(=O)NCC(=O)N[C@@H](CCCN)C(=O)N[C@@H](CC(=O)O)C(=O)N[C@H](C)C(=O)N[C@@H](CC(=O)O)C(=O)NCC(=O)N[C@H](CO)C(=O)N[C@@H]([C@H](C)CC(=O)O)C(=O)N[C@@H](CC(=O)c2ccccc2N)C(=O)O[C@@H]1C
Activity [1]: Active | Activity [2]: Active

CN(C)c1cc(NC(=O)CNC(C)(C)C)c(O)c2c1C[C@H]1C[C@H]3[C@H](N(C)C)C(O)=C(C(N)=O)C(=O)[C@@]3(O)C(O)=C1C2=O
Activity [3]: Active | Activity [2]: Active

CN(C)c1ccc(O)c2c1C[C@H]1C[C@H]3[C@H](N(C)C)C(O)=C(C(N)=O)C(=O)[C@@]3(O)C(O)=C1C2=O
Activity [1]: Active | Activity [2]: Active

CN[C@H](CC(C)C)C(=O)N[C@H]1C(=O)N[C@@H](CC(N)=O)C(=O)N[C@H]2C(=O)N[C@H]3C(=O)N[C@H](C(=O)N[C@H](C(=O)O)c4cc(O)cc(O)c4-c4cc3ccc4O)[C@H](O)c3ccc(c(Cl)c3)Oc3cc2cc(c3O[C@@H]2O[C@H](CO)[C@@H](O)[C@H](O)[C@H]2O[C@H]2C[C@](C)(N)[C@H](O)[C@H](C)O2)Oc2ccc(cc2Cl)[C@H]1O
Activity [4]: inactive

CC(=O)NC[C@H]1CN(c2ccc(N3CCOCC3)c(F)c2)C(=O)O1 [LINEZOLID]
MIC [5]: 0.5 mg/L (≈ 1.48 µM) | MIC [6]: 8 mg/L (≈ 23.7 µM) | MIC [7]: 0.5 mg/L (≈ 1.48 µM) | Activity [8]: Active | MIC [9]: 0.5 mg/L (≈ 1.48 µM) | MIC [10]: 0.5 mg/L (≈ 1.48 µM) | Activity [11]: Active | MIC [12]: 0.5 mg/L (≈ 1.48 µM) | Activity [13]: Active | Activity [14]: Active | Activity [15]: Active | MIC [16]: 0.5 mg/L (≈ 1.48 µM) | MIC [17]: 0.25 mg/L (≈ 0.741 µM) | Activity [18]: Active | MIC [19]: 1 mg/L (≈ 2.96 µM) | MIC [20]: 1 mg/L (≈ 2.96 µM) | Activity [21]: Active | Activity [4]: inactive | MIC [22]: 0.5 mg/L (≈ 1.48 µM)

CO[C@H]1/C=C/O[C@@]2(C)Oc3c(C)c(O)c4c(O)c(c(/C=N/N5CCN(C)CC5)c(O)c4c3C2=O)NC(=O)/C(C)=C\C=C\[C@H](C)[C@H](O)[C@@H](C)[C@@H](O)[C@@H](C)[C@H](OC(C)=O)[C@@H]1C [RIFAMPIN]
MIC [5]: < 0.06 mg/L | MIC [6]: 128 mg/L (≈ 156 µM) | MIC [7]: 128 mg/L (≈ 156 µM) | MIC [8]: < 0.06 mg/L | MIC [9]: < 0.06 mg/L | MIC [23]: 128 mg/L (≈ 156 µM) | MIC [10]: < 0.06 mg/L | MIC [11]: 128 mg/L (≈ 156 µM) | MIC [12]: < 0.06 mg/L | MIC [24]: 32 mg/L (≈ 38.9 µM) | MIC [13]: 128 mg/L (≈ 156 µM) | MIC [14]: 128 mg/L (≈ 156 µM) | MIC [15]: 128 mg/L (≈ 156 µM) | MIC [16]: < 0.06 mg/L | MIC [17]: < 0.06 mg/L | MIC [18]: 128 mg/L (≈ 156 µM) | MIC [19]: < 0.06 mg/L | MIC [20]: < 0.06 mg/L | Activity [21]: Active | Activity [4]: inactive | MIC [22]: < 0.06 mg/L

Reference: ChEMBL document CHEMBL1145511, “Comparative activities of daptomycin, linezolid, and tigecycline against catheter-related methicillin-resistant Staphylococcus bacteremic isolates embedded in biofilm” (2007)
